Data taken from patent publication US20240216395A1, “19-NOR C3,3-DISUBSTITUTED C21 -N-PYRAZOLYL STEROID FOR USE IN TREATING MAJOR DEPRESSIVE DISORDER AND […]” (priority 2021, published 2024).

Tested on: nondependent, recreational users of CNS depressants
Assay: Abuse potential study, dose selection phase: TEAEs
Type: in vivo, human
Description: After a screening period of up to 21 days, eligible participants were randomized 3:1 to receive single escalating doses of Compound (1) (60, 80, or 90 mg) or matching placebo in 3 separate cohorts; Compound (1) was administered during 4 days of inpatient administration (FIG. 30A). Sentinel dosing was employed for each cohort, with one participant randomized to receive Compound (1) and one to receive placebo on Day 1. The remaining 6 participants (Compound (1), 5; placebo, 1) were dosed approximately 24 hours later after monitoring the safety and tolerability endpoints. Dose-escalation cohorts were separated by at least 7 days. If a dose was not well tolerated based on the safety data, doses in subsequent cohorts were to be modified, and Compound (1) dose was not allowed to exceed 90 mg. Participants underwent a 1-day, follow-up visit 7 (±2) days after the end of the treatment and were not permitted to participate in the main study.
For the first part, dose selection, endpoints included the observer-rated Modified Observer's Assessment of Alertness/Sedation (MOAA/S) scores along with safety and tolerability endpoints which included the Columbia-Suicide Severity Rating Scale (C-SSRS), frequency and severity of adverse events (AE) and serious adverse events (SAEs), and changes from baseline in clinical laboratory assessments, vital signs, and electrocardiogram (ECG).
The dose selection safety set included all participants who received 1 dose of Compound (1). The main study qualification safety set included all participants who received ≥1 dose of alprazolam. For the treatment phase, the randomized set included all participants who were randomized and the safety set included all participants who received ≥1 dose of Compound (1) or alprazolam. The completer set included all participants in the randomized set who completed all treatment periods, had sufficient data for evaluation of the primary endpoint, and had ≥1 observation within 2 hours of Tmax for each treatment for Drug Liking VAS scores. […] The PK set included all participants in the treatment phase who received 1 dose of Compound (1) and had 1 PK sample after dosing.

C[C@@]1(O)CC[C@H]2[C@H](CC[C@@H]3[C@@H]2CC[C@]2(C)[C@@H](C(=O)Cn4cc(C#N)cn4)CC[C@@H]32)C1 [Compound (1), 1-(2-((3R,5R,8R,9R,10S,13S,14S,17S)-3-hydroxy-3,13-dimethylhexadecahydro-1H-cyclopenta[a]phenanthren-17-yl)-2-oxoethyl)-1H-pyrazole-4-carbonitrile]
5 (83.3) n (%): Any TEAE (60 mg (n = 6)) | Mild TEAE (60 mg (n = 6)) | Any TEAE (80 mg (n = 6)) | Mild TEAE (80 mg (n = 6)) | Somnolence (TEAE) (80 mg (n = 6))
6 (100) n (%): Any TEAE (90 mg (n = 6))
0 n (%): Asthenopia (TEAE) (60 mg (n = 6)) | Blood bilirubin increased (TEAE) (60 mg (n = 6)) | Disturbance in attention (TEAE) (60 mg (n = 6)) | Euphoric mood (TEAE) (60 mg (n = 6)) | Feeling abnormal (TEAE) (60 mg (n = 6)) | Feeling hot (TEAE) (60 mg (n = 6)) | Feeling of relaxation (TEAE) (60 mg (n = 6)) | Hunger (TEAE) (60 mg (n = 6)) | Hyperhidrosis (TEAE) (60 mg (n = 6)) | Irritability (TEAE) (60 mg (n = 6)) | Lacrimation increased (TEAE) (60 mg (n = 6)) | Moderate TEAE (60 mg (n = 6)) | Paresthesia (TEAE) (60 mg (n = 6)) | Toothache (TEAE) (60 mg (n = 6)) | Tremor (TEAE) (60 mg (n = 6)) | Vision blurred (TEAE) (60 mg (n = 6)) | Yawning (TEAE) (60 mg (n = 6)) | Blood bilirubin increased (TEAE) (80 mg (n = 6)) | Feeling abnormal (TEAE) (80 mg (n = 6)) | Feeling hot (TEAE) (80 mg (n = 6)) | Headache (TEAE) (80 mg (n = 6)) | Hunger (TEAE) (80 mg (n = 6)) | Hyperhidrosis (TEAE) (80 mg (n = 6)) | Lacrimation increased (TEAE) (80 mg (n = 6)) | Moderate TEAE (80 mg (n = 6)) | Orthostatic HR response increase (TEAE) (80 mg (n = 6)) | Toothache (TEAE) (80 mg (n = 6)) | Tremor (TEAE) (80 mg (n = 6)) | Yawning (TEAE) (80 mg (n = 6)) | Asthenopia (TEAE) (90 mg (n = 6)) | Blood bilirubin increased (TEAE) (90 mg (n = 6)) | Disturbance in attention (TEAE) (90 mg (n = 6)) | Dizziness postural (TEAE) (90 mg (n = 6)) | Feeling hot (TEAE) (90 mg (n = 6))
one instance of somnolence: Moderate TEAEs (90 mg)
4 (66.7) n (%): Somnolence (TEAE) (60 mg (n = 6)) | Euphoric mood (TEAE) (90 mg (n = 6))
1 (16.7) n (%): Dizziness postural (TEAE) (60 mg (n = 6)) | Headache (TEAE) (60 mg (n = 6)) | Orthostatic HR response increase (TEAE) (60 mg (n = 6)) | Asthenopia (TEAE) (80 mg (n = 6)) | Disturbance in attention (TEAE) (80 mg (n = 6)) | Euphoric mood (TEAE) (80 mg (n = 6)) | Irritability (TEAE) (80 mg (n = 6)) | Paresthesia (TEAE) (80 mg (n = 6)) | Vision blurred (TEAE) (80 mg (n = 6)) | Feeling abnormal (TEAE) (90 mg (n = 6)) | Feeling of relaxation (TEAE) (90 mg (n = 6))
2 (33.3) n (%): Dizziness postural (TEAE) (80 mg (n = 6)) | Feeling of relaxation (TEAE) (80 mg (n = 6))
